Data set [1] has as its target T1, TNIK kinase [amino acid sequence (1-367), Invitrogen] (Homo sapiens, UniProt Q9UKE5).
T1 construct: purchased Invitrogen
The data set is described as follows: TNIK kinase inhibition assay (Z-lyte FRET-peptide). It counts as biochemical. Particulars: 0.625 nM TNIK kinase, 2 μM Ser/Thr 7 peptide, 64 μM ATP, one hour at room temperature.

The nature of data set [2]: Metabolic stability in human liver microsomes. It is filed as in vitro ADME. Particulars: LM Clint (intrinsic clearance); 1 μM test compound, 0.5 mg protein/mL microsome, 37° C., up to 60 min. As for the experimental part: 2.1. Test Compound and Control Working Solution Preparation: Working solution: 5 µL of compound and control stock solution (10 mM in dimethyl sulfoxide (DMSO)) were diluted with 495 μL of acetonitrile (ACN) (intermediate solution concentration: 100 μM, 99% ACN).
2.2.1. […] 2.2.2. Preparation Procedure: The appropriate amount of NADPH powder were weighed and diluted into a 10 mM MgCl2 solution (working solution concentration: 10 unit/mL; final concentration in reaction system: 1 unit/mL).
2.3.2. Preparation Procedure: The appropriate concentrations of microsome working solutions were prepared in 100 mM potassium phosphate buffer. 2.4. Stop Solution Preparation: Cold (4° C.) acetonitrile (ACN) containing 200 ng/mL tolbutamide and 200 ng/mL labetalol as internal standards (IS) were used as the stop solution.
2.5.1. Pre-warm empty ‘Incubation’ plates T60 and NCF60 for 10 min minutes. 2.5.2. Liver microsomes were diluted to 0.56 mg/mL in 100 mM phosphate buffer. 2.5.3. 445 uL microsome working solutions (0.56 mg/mL) were transferred into pre-warmed ‘Incubation’ plates T60 and NCF60. Then ‘Incubation’ plates T60 and NCF60 were pre-incubated for 10 min at 37° C. with constant shaking. 54 μL liver microsomes were transferred to blank plate, then 6 μL NAPDH cofactor were added to the blank plate, and then 180 μL quenching solution can be added to blank plate. 2.5.4 5 μL compound working solution (100 μM) were added into ‘incubation’ plates (T60 and NCF60) containing microsomes and mix 3 times thoroughly. 2.5.5. For the NCF60 plate, 50 uL of buffer were added and were mixed 3 times thoroughly. Start timing; plate was incubated at 37° C. for 60 min while shaking. 2.5.6. In ‘Quenching’ plate TO, 180 μL quenching solution were added and 6 μL NAPDH cofactor were added. Ensured the plate was chilled to prevent evaporation. 2.5.7. For the T60 plate, were mixed 3 times thoroughly, and immediately removed 54 μL mixture for the 0-min time point to ‘Quenching’ plate. Then 44 μL NAPDH cofactor were added to incubation plate (T60). Start timing; plate were incubated at 37° C. for 60 min while shaking.
2.5.8. At 5, 10, 20, 30, and 60 min, 180 μL quenching solution were added to ‘Quenching’ plates, mix once, and were serially transferred 60 μL sample from T60 plate per time point to ‘Quenching’ plates.
2.5.9. For NCF60: were mixed once, and 60 μL sample were transferred from the NCF60 incubation to ‘Quenching’ plate containing quenching solution at the 60-min time point.
2.5.10. All sampling plates were shaken for 10 min, then centrifuged at 4000 rpm for 20 minutes at 4° C. 2.5.11. 80 μL supernatant were transferred into 240 μL HPLC water, and were mixed by plate shaker for 10 min. 2.5.12. Each bioanalysis plate were sealed and shaken for 10 minutes prior to LC-MS/MS analysis.
3.1. The equation of first order kinetics were used to calculate T1/2 and Intrinsic clearance (CLint mic) in (μL/min/mg).
Equation of first order kinetic.
On the technique in general: Microsomes from liver hold many membrane-bound enzymes, among them those of drug oxidation.

Usually IC50 stands for the concentration needed to halve the response being measured. Low readings indicate greater potency in that assay, high ones weaker potency in that assay.

T1 sequence (Q9UKE5 1-367): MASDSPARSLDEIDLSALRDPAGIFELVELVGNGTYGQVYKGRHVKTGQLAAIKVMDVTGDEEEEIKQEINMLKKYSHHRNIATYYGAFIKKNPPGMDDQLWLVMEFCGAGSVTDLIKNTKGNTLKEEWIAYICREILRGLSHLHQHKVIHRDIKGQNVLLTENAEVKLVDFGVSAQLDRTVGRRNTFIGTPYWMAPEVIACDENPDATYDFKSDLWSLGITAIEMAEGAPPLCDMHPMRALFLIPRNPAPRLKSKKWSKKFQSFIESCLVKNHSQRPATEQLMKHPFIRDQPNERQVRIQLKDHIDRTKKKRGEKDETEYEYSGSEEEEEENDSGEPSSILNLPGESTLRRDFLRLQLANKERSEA

Turning to `CN1C2CC1CN(c1ccc(NC(=O)c3csc(-c4c(-c5ccc(F)cc5)ncn4C4CC4)n3)nc1)C2` [Compound 45, 2-(1-cyclopropyl-4-(4-fluorophenyl)-1H-imidazol-5-yl)-N-(5-(6-methyl-3,6-diazabicyclo[3.1.1]heptan-3-yl)pyridin-2-yl)thiazole-4-carboxamide], the IC50 in data set [1] lay in the range of 0.001 to 0.012 µM. For the same compound, the “Human Liver Microsome (μM/min/mg)” value in data set [2] is listed as “++ (10-100 μM/min/mg as ++)”.
Taken in the same sequence, the figures for `O=C(Nc1ccc(C2COC2)cc1F)c1coc(-c2c(-c3ccc(F)cc3)ncn2C2CC(F)(F)C2)n1` [Compound 81, 2-(1-(3,3-difluorocyclobutyl)-4-(4-fluorophenyl)-1H-imidazol-5-yl)-N-(2-fluoro-4-(oxetan-3-yl)phenyl)oxazole-4-carboxamide] were 0.012 to 0.15 µM and “+ (>100 μM/min/mg as +)”.
For `CC(C)n1cnc(-c2ccc(F)cc2)c1-c1csc(C(=O)Nc2ccc(N3CCN(C)CC3)cc2F)n1` [Compound 12, N-(2-fluoro-4-(4-methylpiperazin-1-yl)phenyl)-4-(4-(4-fluorophenyl)-1-isopropyl-1H-imidazol-5-yl)thiazole-2-carboxamide], the IC50 in data set [1] lay in the range of 0.001 to 0.012 µM. In data set [2], the “Human Liver Microsome (μM/min/mg)” value is listed as “++ (10-100 μM/min/mg as ++)”.
In data set [1], `CC(C)n1cnc(-c2ccc(F)cc2)c1-c1nc(C(=O)Nc2ccc(N3CC4CC(C3)N4C)cn2)cs1` [Compound 44, 2-(4-(4-fluorophenyl)-1-isopropyl-1H-imidazol-5-yl)-N-(5-(6-methyl-3,6-diazabicyclo[3.1.1]heptan-3-yl)pyridin-2-yl)thiazole-4-carboxamide] yielded an IC50 of 0.001 to 0.012 µM. Also, in data set [2], the “Human Liver Microsome (μM/min/mg)” value is “++ (10-100 μM/min/mg as ++)”.
For `CC(C)n1cnc(-c2ccc(F)cc2)c1-c1nc(C(=O)Nc2ccc(N3C[C@H]4CC[C@@H](C3)N4C)cn2)co1` [Compound 40, 2-(4-(4-fluorophenyl)-1-isopropyl-1H-imidazol-5-yl)-N-(5-((1R,5S)-8-methyl-3,8-diazabicyclo[3.2.1]octan-3-yl)pyridin-2-yl)oxazole-4-carboxamide], in that order: 0.001 to 0.012 µM and “+ (>100 μM/min/mg as +)”.
For `CN1CCN(c2ccc(NC(=O)c3csc(-c4c(-c5ccc(F)cc5)ncn4C4CC4)n3)nc2)CC1` [Compound 42, 2-(1-cyclopropyl-4-(4-fluorophenyl)-1H-imidazol-5-yl)-N-(5-(4-methylpiperazin-1-yl)pyridin-2-yl)thiazole-4-carboxamide], in that order: 0.001 to 0.012 µM and “++ (10-100 μM/min/mg as ++)”.
For `CC(C)n1cnc(-c2ccc(F)cc2)c1-c1nc(C(=O)Nc2ccc(N3CCOCC3)cc2F)cs1` [Compound 100, N-(2-fluoro-4-morpholinophenyl)-2-(4-(4-fluorophenyl)-1-isopropyl-1H-imidazol-5-yl) thiazole-4-carboxamide], in that order: 0.001 to 0.012 µM and “++ (10-100 μM/min/mg as ++)”.
`[2H]C([2H])([2H])N1CC(c2ccc(NC(=O)c3csc(-c4c(-c5ccc(F)cc5)ncn4C(C)C)n3)nc2)C1` [Compound 108, 2-[5-(4-fluorophenyl)-3-isopropyl-imidazol-4-yl]-N-[5-[1-(trideuteriomethyl)azetidin-3-yl]-2-pyridyl]thiazole-4-carboxamide] yielded an IC50 in data set [1] of 0.001 to 0.012 µM. The “Human Liver Microsome (μM/min/mg)” value in data set [2] is reported as “++ (10-100 μM/min/mg as ++)”.
Taken in the same sequence, the figures for `CC(C)n1cnc(-c2ccc(F)cc2)c1-c1nc(C(=O)Nc2ccc(C3CN(C)C3)cc2F)cs1` [Compound 58, N-(2-fluoro-4-(1-methylazetidin-3-yl)phenyl)-2-(4-(4-fluorophenyl)-1-isopropyl-1H-imidazol-5-yl)thiazole-4-carboxamide] were 0.001 to 0.012 µM and “++ (10-100 μM/min/mg as ++)”.
For `CC(C)n1cnc(-c2ccc(F)cc2)c1-c1nc(C(=O)Nc2ccc(N3C[C@H]4CC[C@@H](C3)N4C)cn2)cs1` [Compound 41, 2-(4-(4-fluorophenyl)-1-isopropyl-1H-imidazol-5-yl)-N-(5-((1R,5S)-8-methyl-3,8-diazabicyclo[3.2.1]octan-3-yl)pyridin-2-yl)thiazole-4-carboxamide], in that order: 0.001 to 0.012 µM and “++ (10-100 μM/min/mg as ++)”.
On to `CC(C)c1noc(-c2ccc(F)cc2)c1-c1nc(C(=O)Nc2ccc(N3CC4CC(C3)N4C)cn2)cs1` [Compound 95, 2-(5-(4-fluorophenyl)-3-isopropylisoxazol-4-yl)-N-(5-(6-methyl-3,6-diazabicyclo[3.1.1]heptan-3-yl)pyridin-2-yl)thiazole-4-carboxamide], for which the half-inhibitory concentration (IC50) in data set [1] was in the range of 0.001 to 0.012 µM. Besides, the “Human Liver Microsome (μM/min/mg)” value in data set [2] is “++ (10-100 μM/min/mg as ++)”.
`CC(C)c1noc(-c2ccc(F)cc2)c1-c1nc(C(=O)Nc2ccc(C3COC3)cc2F)cs1` [Compound 31, N-(2-fluoro-4-(oxetan-3-yl)phenyl)-2-(5-(4-fluorophenyl)-3-isopropylisoxazol-4-yl)thiazole-4-carboxamide] returned an IC50 in data set [1] of 0.012 to 0.15 µM. The “Human Liver Microsome (μM/min/mg)” value in data set [2] is “++ (10-100 μM/min/mg as ++)”.
`CC(C)n1cnc(-c2ccc(F)cc2)c1-c1nc(C(=O)Nc2ccc(N3CCN(C)CC3)cn2)c[nH]1` [Compound 21, 5′-(4-fluorophenyl)-3′-isopropyl-N-(5-(4-methylpiperazin-1-yl)pyridin-2-yl)-1H,3′H-[2,4′-biimidazole]-4-carboxamide] had an IC50 in data set [1] of 0.001 to 0.012 µM. In data set [2], the “Human Liver Microsome (μM/min/mg)” value was “++ (10-100 μM/min/mg as ++)”.
Turning to `CC(C)n1cnc(-c2ccc(F)cc2)c1-c1nc(C(=O)Nc2ccc(C3COC3)cn2)c[nH]1` [Compound 54, 5′-(4-fluorophenyl)-3′-isopropyl-N-(5-(oxetan-3-yl)pyridin-2-yl)-1H,3′H-[2,4′-biimidazole]-4-carboxamide], the IC50 in data set [1] fell in the range of 0.001 to 0.012 µM. In addition, the “Human Liver Microsome (μM/min/mg)” value in data set [2] was “++ (10-100 μM/min/mg as ++)”.
`O=C(Nc1ccc(C2COC2)cn1)c1csc(-c2c(-c3ccc(F)cc3)ncn2C2CC(F)(F)C2)n1` [Compound 74, 2-(1-(3,3-difluorocyclobutyl)-4-(4-fluorophenyl)-1H-imidazol-5-yl)-N-(5-(oxetan-3-yl)pyridin-2-yl)thiazole-4-carboxamide]: the IC50 in data set [1] lay within 0.001 to 0.012 µM. For the same compound, the “Human Liver Microsome (μM/min/mg)” value in data set [2] is reported as “+ (>100 μM/min/mg as +)”.
Taken in the same sequence, the figures for `CCN1C2CC1CN(c1ccc(NC(=O)c3csc(-c4c(-c5ccc(F)cc5)ncn4C4CC(F)(F)C4)n3)nc1)C2` [Compound 84, 2-(1-(3,3-difluorocyclobutyl)-4-(4-fluorophenyl)-1H-imidazol-5-yl)-N-(5-(6-ethyl-3,6-diazabicyclo[3.1.1]heptan-3-yl)pyridin-2-yl)thiazole-4-carboxamide] were 0.001 to 0.012 µM and “++ (10-100 μM/min/mg as ++)”.
Taken in the same sequence, the figures for `[2H]C([2H])([2H])N1CC(c2ccc(NC(=O)c3csc(-c4c(-c5ccc(F)c(Cl)c5)ncn4C(C)C)n3)nc2)C1` [Compound 123, 2-[5-(3-chloro-4-fluoro-phenyl)-3-isopropyl-imidazol-4-yl]-N-[5-[1-(trideuteriomethyl)azetidin-3-yl]-2-pyridyl]thiazole-4-carboxamide] were 0.001 to 0.012 µM and “++ (10-100 μM/min/mg as ++)”.
Taken in the same sequence, the figures for `[2H]C([2H])([2H])N1CC(c2ccc(NC(=O)c3nc(-c4c(-c5ccc(F)cc5)ncn4C4CCC4)cs3)nc2)C1` [Compound 121, 4-(1-cyclobutyl-4-(4-fluorophenyl)-1H-imidazol-5-yl)-N-(5-(1-(trideuteriomethyl)azetidin-3-yl)pyridin-2-yl)thiazole-2-carboxamide] were 0.001 to 0.012 µM and “++ (10-100 μM/min/mg as ++)”.

The record behind these values is patent US20240336611A1 (Insilico Medicine IP Limited, priority 2021, published 2024).
